Results reported in patent publication US9290496B2, “Purine derivatives” (PFIZER INC., priority 2013, dated 2016).

What was measured:
Assay type in all cases: cell-based
[1] = biological target: T1, EGFR del (PC9) (Homo sapiens, UniProt P00533, DEL746-750); assay: pEGFR Y1068 ELISA assay, PC9 cells; conditions: inhibition of phosphorylation of EGFR at Tyr1068; PC9 NSCLC cells; 2 hr compound incubation
T1 construct: detects endogenous levels of phospho-EGF Receptor (Tyr1068) protein; host or cells: PC9
Procedure: (§1) The PathScan® Phospho-EGF Receptor (Tyr1068) Sandwich ELISA Kit is a solid phase sandwich enzyme-linked immunosorbent assay (ELISA) that detects endogenous levels of phospho-EGF Receptor (Tyr1068) protein. […] NCI-H3255 cells were licensed from NCI. […] All cells were cultured according to ATCC recommendations. A549, NCI-H1975, PC9, and NCI-H3255 cells were grown in RPMI media (Invitrogen, Carlsbad, Calif.) supplemented with 10% FBS (Sigma, St Louis, Mo.), and with 1% Penn/Strep (Invitrogen).
(§2) Each compound was prepared as a DMSO stock solution (10 mM). Compounds were tested in duplicate on each plate, with an 11-point serial dilution curve (1:3 dilution). Compound treatment (50 μL) was added from the compound dilution plate to the cell plate. […] Plates were then incubated for 2 hr at 37° C., 5% CO2. […] The wash was then flicked off and ice-cold lysis buffer was added to the cells (50 μL/well). The plate was shaken for 20-30 min at 4° C. to completely lyse the cells. Sample diluent (50 μL/well) was added to the ELISA plate, and the lysate (50 μL) was diluted into the sample diluent in each well of the ELISA plate. Plates were sealed and incubated overnight at 4° C. with shaking. The next day, wells were washed four times with 1× Wash Buffer; plates were taped on lint-free paper after the final wash prior to adding Add Detection Antibody (green, 100 μL/well) to each well and incubating for 1 hr at 37° C. After incubation, wells were washed as described. HRP-Linked secondary antibody (red, 100 μL/well) was added to each well and incubated for 30 min at 37° C. After incubation, the wells were washed as described. TMB Substrate (100 μL/well) was added to each well and the plate incubated for 10 min at 37° C. or 30 min at rt maximum. Stop Solution (100 μL/well) was added to each well at the end of the incubation and plates were shaken gently for a few seconds. […] Data were analyzed using a four-parameter fit in Microsoft Excel.

[2] = biological target: T2, EGFR L858R (NCI-H3255) (Homo sapiens, UniProt P00533, L858R); assay: pEGFR Y1068 ELISA assay, NCI-H3255 cells
T2 construct: detects endogenous levels of phospho-EGF Receptor (Tyr1068) protein; host or cells: NCI-H3255
Procedure: as §1, §2

[3] = biological target: T3, EGFR wildtype, endogenous (A549) (Homo sapiens, UniProt P00533); assay: pEGFR Y1068 ELISA assay, A549 cells; conditions: inhibition of phosphorylation of EGFR at Tyr1068; A549 NSCLC cells; 2 hr compound incubation, then stimulated 10 min with EGF (40 ng/mL)
T3 construct: A549 (EGFR wildtype, endogenous); host or cells: A549 (stimulated with EGF)
Procedure: (§3) Phosphorylation of EGFR at Y1068 was measured by PathScan® Phospho-EGF Receptor (Try1068) Sandwich ELISA kit (#7240, Cell Signaling Technology®, Danvers, Mass.). The PathScan® Phospho-EGF Receptor (Tyr1068) Sandwich ELISA Kit is a solid phase sandwich enzyme-linked immunosorbent assay (ELISA) that detects endogenous levels of phospho-EGF Receptor (Tyr1068) protein. […] All cells were cultured according to ATCC recommendations. A549, NCI-H1975, PC9, and NCI-H3255 cells were grown in RPMI media (Invitrogen, Carlsbad, Calif.) supplemented with 10% FBS (Sigma, St Louis, Mo.), and with 1% Penn/Strep (Invitrogen). PC9-DRH cells were grown in RPMI with 10% FBS and 1 μM dacomitinib.
(§4) Cells were plated at 40,000/well in complete culture media (50 μL/well) on the bottom of clear tissue culture treated microtiter plates (#3595, Corning Inc, Corning, N.Y.) and allowed to adhere overnight at 37° C., 5% CO2. The following day, compound dilution plates were prepared in 96 well clear V-bottom 0.5 mL polypropylene block plates (#3956, Corning, Inc). Each compound was prepared as a DMSO stock solution (10 mM). Compounds were tested in duplicate on each plate, with an 11-point serial dilution curve (1:3 dilution). Compound treatment (50 μL) was added from the compound dilution plate to the cell plate. […] Plates were then incubated for 2 hr at 37° C., 5% CO2. For A549 (EGFR wildtype) assay, cells were plated in full-serum (10%) media for 24 hr prior to compound treatment; cells were treated in full serum media as described and then stimulated for 10 min with EGF (40 ng/mL/starvation media, Invitrogen). Immediately prior to the end of the incubation, ice-cold lysis buffer was prepared (1× Cell Lysis Buffer (#9803, Cell Signaling Technology), 1 mM sodium orthovanadate (Na3VO4, #96508, Sigma), 1 mM phenylmethanesulfonyl fluoride (PMSF, 52332, CalBiochem/EMD Chemicals), complete Mini EDTA-free Protease Inhibitor Cocktail Tablet (1 tablet/10 mL, #11836170001, Roche, Indianapolis, Ind.), and PhosSTOP Phosphatase Inhibitor Cocktail Tablet (1 tablet/10 mL, #04906837001, Roche) in pure water. At the end of 2 hr, media was flicked off and cells were washed once with ice-cold 1 mM Na3VO4 in PBS (100 μL/well, Invitrogen). The wash was then flicked off and ice-cold lysis buffer was added to the cells (50 μL/well). The plate was shaken for 20-30 min at 4° C. to completely lyse the cells. Sample diluent (50 μL/well) was added to the ELISA plate, and the lysate (50 μL) was diluted into the sample diluent in each well of the ELISA plate. Plates were sealed and incubated overnight at 4° C. with shaking. The next day, wells were washed four times with 1× Wash Buffer; plates were taped on lint-free paper after the final wash prior to adding Add Detection Antibody (green, 100 μL/well) to each well and incubating for 1 hr at 37° C. After incubation, wells were washed as described. HRP-Linked secondary antibody (red, 100 μL/well) was added to each well and incubated for 30 min at 37° C. After incubation, the wells were washed as described. TMB Substrate (100 μL/well) was added to each well and the plate incubated for 10 min at 37° C. or 30 min at rt maximum. Stop Solution (100 μL/well) was added to each well at the end of the incubation and plates were shaken gently for a few seconds. Absorbance was read at 450 nm within 30 min after addition of Stop Solution on a PerkinElmer EnVision Excite Multilabel Reader Method for Absorbance or on a Molecular Devices SpectraMax^384 Reader for absorbance. Data were analyzed using a four-parameter fit in Microsoft Excel.

[4] = biological target: T4, EGFR del/T790M (PC9-DRH) (Homo sapiens, UniProt P00533, DEL746-750/T790M); assay: pEGFR Y1068 ELISA assay, PC9-DRH cells; conditions: inhibition of phosphorylation of EGFR at Tyr1068; PC9-DRH cells (dacomitinib resistant); 2 hr compound incubation
T4 construct: detects endogenous levels of phospho-EGF Receptor (Tyr1068) protein; endogenous in cells; host or cells: PC9-DRH (dacomitinib-resistant derivative of PC9, generated in house)
Procedure: as §1, §2

[5] = biological target: T5, EGFR L858R+T790M, endogenous (NCI-H1975) (Homo sapiens, UniProt P00533, L858R/T790M); assay: pEGFR Y1068 ELISA assay, NCI-H1975 cells; conditions: inhibition of phosphorylation of EGFR at Tyr1068; NCI-H1975 NSCLC cells; 2 hr compound incubation
T5 construct: NCI-H1975 (EGFR L858R+T790M, endogenous); host or cells: NCI-H1975
T5 sequence (P00533 25-1210 T790M/L858R): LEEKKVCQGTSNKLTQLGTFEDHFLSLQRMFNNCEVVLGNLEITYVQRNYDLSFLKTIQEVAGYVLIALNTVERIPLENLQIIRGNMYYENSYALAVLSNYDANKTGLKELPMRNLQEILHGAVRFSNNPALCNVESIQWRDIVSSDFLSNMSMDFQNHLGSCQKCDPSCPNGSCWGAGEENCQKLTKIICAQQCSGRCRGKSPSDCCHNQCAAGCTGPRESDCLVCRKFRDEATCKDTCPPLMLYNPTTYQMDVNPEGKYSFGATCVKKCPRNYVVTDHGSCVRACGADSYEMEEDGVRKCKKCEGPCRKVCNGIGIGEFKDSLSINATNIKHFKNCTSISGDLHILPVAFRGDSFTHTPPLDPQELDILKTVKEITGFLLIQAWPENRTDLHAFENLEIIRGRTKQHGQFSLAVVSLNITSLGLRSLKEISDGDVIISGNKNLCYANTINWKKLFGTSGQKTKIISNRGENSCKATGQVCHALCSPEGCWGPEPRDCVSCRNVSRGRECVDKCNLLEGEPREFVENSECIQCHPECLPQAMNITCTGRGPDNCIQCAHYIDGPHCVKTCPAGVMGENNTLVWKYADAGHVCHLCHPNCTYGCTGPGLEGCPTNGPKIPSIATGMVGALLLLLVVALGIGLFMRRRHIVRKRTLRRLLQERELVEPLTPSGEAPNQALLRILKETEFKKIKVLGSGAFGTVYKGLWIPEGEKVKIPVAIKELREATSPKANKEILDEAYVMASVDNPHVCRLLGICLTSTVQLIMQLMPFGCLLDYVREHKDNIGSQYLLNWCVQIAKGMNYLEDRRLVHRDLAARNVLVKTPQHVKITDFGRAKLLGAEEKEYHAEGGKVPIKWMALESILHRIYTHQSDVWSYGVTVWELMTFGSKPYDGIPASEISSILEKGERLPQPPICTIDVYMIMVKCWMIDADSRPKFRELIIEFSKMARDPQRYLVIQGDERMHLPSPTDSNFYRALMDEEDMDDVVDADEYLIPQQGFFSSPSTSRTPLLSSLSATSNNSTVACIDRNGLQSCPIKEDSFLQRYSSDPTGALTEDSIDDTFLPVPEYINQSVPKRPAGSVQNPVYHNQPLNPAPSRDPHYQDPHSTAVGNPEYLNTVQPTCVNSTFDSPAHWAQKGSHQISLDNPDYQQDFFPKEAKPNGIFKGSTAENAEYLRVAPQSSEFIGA
Procedure: as §3, §4

T2 sequence (P00533 25-1210 L858R): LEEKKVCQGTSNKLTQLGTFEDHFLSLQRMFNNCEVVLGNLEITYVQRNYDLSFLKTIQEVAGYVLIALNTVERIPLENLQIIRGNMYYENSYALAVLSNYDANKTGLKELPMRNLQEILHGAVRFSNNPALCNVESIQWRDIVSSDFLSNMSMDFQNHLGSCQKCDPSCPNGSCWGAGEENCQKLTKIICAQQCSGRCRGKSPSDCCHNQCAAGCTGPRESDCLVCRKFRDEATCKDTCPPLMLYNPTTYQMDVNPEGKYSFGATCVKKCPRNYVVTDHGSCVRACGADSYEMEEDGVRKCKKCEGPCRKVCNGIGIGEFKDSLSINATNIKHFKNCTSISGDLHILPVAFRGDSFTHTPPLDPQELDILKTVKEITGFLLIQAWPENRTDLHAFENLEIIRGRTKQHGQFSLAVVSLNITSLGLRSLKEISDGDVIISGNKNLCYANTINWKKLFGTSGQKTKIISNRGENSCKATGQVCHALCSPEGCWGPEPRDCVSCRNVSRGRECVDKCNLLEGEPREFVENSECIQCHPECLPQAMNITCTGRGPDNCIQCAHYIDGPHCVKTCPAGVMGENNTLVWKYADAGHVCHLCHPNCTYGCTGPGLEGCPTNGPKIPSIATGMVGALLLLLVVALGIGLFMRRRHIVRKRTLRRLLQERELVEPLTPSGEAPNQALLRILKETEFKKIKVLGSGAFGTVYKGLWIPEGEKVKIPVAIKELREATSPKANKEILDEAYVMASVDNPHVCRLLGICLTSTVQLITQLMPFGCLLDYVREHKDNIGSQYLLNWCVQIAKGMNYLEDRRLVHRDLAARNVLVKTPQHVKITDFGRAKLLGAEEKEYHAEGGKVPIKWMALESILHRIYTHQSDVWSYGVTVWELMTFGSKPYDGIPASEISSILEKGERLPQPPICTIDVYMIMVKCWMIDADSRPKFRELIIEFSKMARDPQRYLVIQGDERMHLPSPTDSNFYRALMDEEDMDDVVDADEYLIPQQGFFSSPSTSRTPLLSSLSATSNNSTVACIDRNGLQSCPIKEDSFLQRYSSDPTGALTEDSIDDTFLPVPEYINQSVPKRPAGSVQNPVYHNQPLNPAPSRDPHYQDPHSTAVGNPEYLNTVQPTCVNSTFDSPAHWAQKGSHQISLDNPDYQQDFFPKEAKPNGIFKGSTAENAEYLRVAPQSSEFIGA
T4 sequence (P00533 with tags, fused parts or gaps DEL746-750/T790M): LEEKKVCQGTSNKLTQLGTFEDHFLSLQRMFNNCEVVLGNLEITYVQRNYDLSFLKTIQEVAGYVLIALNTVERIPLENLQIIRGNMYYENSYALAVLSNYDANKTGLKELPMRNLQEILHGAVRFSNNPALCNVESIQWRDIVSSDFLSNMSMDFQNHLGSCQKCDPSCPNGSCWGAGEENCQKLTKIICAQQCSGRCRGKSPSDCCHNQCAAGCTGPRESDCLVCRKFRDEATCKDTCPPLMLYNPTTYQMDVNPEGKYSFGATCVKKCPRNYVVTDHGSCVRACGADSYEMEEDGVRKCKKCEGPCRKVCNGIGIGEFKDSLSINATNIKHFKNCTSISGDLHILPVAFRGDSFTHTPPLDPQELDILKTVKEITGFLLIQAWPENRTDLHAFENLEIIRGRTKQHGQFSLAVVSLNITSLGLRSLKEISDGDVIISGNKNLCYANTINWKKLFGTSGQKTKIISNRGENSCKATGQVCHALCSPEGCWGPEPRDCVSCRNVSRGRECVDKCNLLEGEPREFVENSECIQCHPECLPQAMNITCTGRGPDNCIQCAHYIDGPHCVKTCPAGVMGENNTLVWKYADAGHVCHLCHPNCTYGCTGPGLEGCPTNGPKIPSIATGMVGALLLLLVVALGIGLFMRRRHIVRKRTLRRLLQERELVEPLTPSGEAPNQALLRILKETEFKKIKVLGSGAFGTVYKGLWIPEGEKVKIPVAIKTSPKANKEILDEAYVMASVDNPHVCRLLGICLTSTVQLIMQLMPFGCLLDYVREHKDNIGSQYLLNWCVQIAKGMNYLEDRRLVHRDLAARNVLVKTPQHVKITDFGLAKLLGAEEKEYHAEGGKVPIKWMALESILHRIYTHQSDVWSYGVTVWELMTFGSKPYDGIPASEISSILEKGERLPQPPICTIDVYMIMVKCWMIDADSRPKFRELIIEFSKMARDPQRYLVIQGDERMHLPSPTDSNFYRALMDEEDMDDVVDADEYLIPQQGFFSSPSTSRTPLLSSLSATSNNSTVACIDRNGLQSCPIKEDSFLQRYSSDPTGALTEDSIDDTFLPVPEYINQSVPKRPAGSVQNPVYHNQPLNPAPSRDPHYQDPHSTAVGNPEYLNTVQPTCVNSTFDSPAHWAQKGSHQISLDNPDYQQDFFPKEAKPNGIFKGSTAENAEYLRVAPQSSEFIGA
T1 sequence (P00533 with tags, fused parts or gaps DEL746-750): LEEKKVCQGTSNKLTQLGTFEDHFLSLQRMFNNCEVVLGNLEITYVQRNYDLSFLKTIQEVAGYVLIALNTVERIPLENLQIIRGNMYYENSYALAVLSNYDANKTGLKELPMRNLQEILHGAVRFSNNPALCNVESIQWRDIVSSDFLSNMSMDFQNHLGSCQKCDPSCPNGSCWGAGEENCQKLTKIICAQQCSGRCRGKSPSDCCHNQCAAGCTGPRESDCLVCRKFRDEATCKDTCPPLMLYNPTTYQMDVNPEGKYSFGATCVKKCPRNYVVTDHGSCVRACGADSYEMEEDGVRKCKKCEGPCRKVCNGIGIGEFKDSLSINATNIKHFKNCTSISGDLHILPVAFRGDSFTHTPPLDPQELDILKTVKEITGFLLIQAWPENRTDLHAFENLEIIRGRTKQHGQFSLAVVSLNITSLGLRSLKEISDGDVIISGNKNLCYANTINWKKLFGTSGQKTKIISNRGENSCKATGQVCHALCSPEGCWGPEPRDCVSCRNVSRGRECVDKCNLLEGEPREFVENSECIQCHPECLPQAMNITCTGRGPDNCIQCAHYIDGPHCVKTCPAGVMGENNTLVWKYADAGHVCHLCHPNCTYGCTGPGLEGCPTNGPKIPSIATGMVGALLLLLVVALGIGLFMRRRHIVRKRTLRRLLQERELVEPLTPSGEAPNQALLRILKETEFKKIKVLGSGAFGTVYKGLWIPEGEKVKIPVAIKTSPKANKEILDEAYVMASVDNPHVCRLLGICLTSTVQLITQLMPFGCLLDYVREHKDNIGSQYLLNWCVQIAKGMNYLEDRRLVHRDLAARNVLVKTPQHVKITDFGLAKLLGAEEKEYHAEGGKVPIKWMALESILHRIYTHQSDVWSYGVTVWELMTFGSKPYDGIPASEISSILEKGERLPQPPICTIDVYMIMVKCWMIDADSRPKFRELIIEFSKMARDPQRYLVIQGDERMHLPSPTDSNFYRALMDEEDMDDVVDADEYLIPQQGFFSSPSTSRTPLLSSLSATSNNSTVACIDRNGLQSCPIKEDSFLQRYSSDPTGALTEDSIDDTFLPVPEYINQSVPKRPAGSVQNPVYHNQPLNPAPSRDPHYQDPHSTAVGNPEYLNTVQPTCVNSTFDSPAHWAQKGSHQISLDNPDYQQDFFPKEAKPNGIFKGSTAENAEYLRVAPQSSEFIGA

| IC50 [1] | IC50 [2] | IC50 [3] | IC50 [4] | IC50 [5] | Compound |
| --- | --- | --- | --- | --- | --- |
| 8 nM | 3 nM | 587 nM | 34 nM | 26 nM | C=CC(=O)N[C@@H]1CN(c2nc(Nc3cnn(C)c3)c3ncn(C(C)C)c3n2)C[C@@H]1OC (single isomer, unassigned) [Example 50, N-((cis*)-1-(9-isopropyl-6((1-methyl-1H-pyrazol-4-yl)amino)-9H-purin-2-yl)-4-methoxypyrrolidin-3-yl)acrylamide] |
| 22 nM | 19 nM | 277 nM | 18 nM | 19 nM | C=CC(=O)N[C@H]1CCN(c2nc(Nc3ccc(N4CCN(C)CC4)cc3)c3ncn(C(C)C)c3n2)C1 [Example 1, (S)-N-(1-(9-isopropyl-6-((4-(4-methylpiperazin-1-yl)phenyl)amino)-9H-purin-2-yl)pyrrolidin-3-yl)acrylamide] |
| 40 nM | 80 nM | 2440 nM | 25 nM | 40 nM | C=CC(=O)NC1(C)CN(c2nc(Nc3cnn(C)c3)c3ncn(C(C)C)c3n2)C1 [Example 13, N-(1-(9-isopropyl-6((1-methyl-1H-pyrazol-4-yl)amino)-9H-purin-2-yl)-3-methylazetidin-3-yl)acrylamide] |
| 21 nM | 15 nM | 575 nM | 8 nM | 19 nM | C=CC(=O)N[C@@H]1CN(c2nc(Nc3cn(C4CCN(C)C4)nc3C)c3ncn(C)c3n2)C[C@H]1F (stereo partly drawn) [Example 81, N-((3R,4R)-4-fluoro-1-(9-methyl-6-((3-methyl-1-(1-methylpyrrolidin-3-yl)-1H -pyrazol-4-yl)amino)-9H-purin-2-yl)pyrrolidin-3-yl)acrylamide] |
